The text below walks through data of US10463639B2, “Compounds as modulators of a mutant CFTR protein and their use for treating diseases associated with CFTR protein malfunction” (INSTYTUT BIOCHEMII I BIOFIZYKI PAN, priority 2010, dated 2019).

pEC50: −log10 of the molar value.

Common to all, as to assay type: cell-based
The target of test [1] is T1, ΔF508-CFTR (Homo sapiens, UniProt P13569, DEL508-508).
T1 construct: expressed in transfected cells; host or cells: HeLa cells, stably transfected (pTracer-based plasmid pTCF-F508del), provided by Pascale Fanen (Inserm U.468)
Description: CFTR immunolocalization by confocal immunofluorescence in HeLa cells. To be noted: 1 μM, 24 hours. Here is the method: (c) Effects of the different compounds used at 1 μM on CFTR localization. Confocal imaging showing the plasma membrane localisation of WT-CFTR and intracellular localisation of ΔF508-CFTR. The effect of drugs is illustrated in panels c to f. Bars: […]. Arrows indicate staining of CFTR at the plasma membrane.
HeLa cells grown on glass coverslips were treated as above and as described in Lipecka, J. et al., Distribution of ClC-2 chloride channel in rat and human epithelial tissues. American journal of physiology. Cell physiology 282, C805-16(2002). Cells were fixed with 4% formaldehyde and permeabilized with 0.1% Triton in PBS. Cells were blocked with 1% bovine serum albumine in PBS/Triton and incubated at 4° C. overnight with the primary antibodies, 24-1 (1:300). After washing and blocking with 5% normal goat serum, cells were incubated with the secondary antibodies. Glass coverslips were mounted using the Vectashield mounting medium (Vector laboratories) and examined by confocal laser microscopy (Zeiss, LSM 510).

Test [2] has as its target T1, ΔF508-CFTR. Description: Whole cell patch-clamp recordings of cAMP-dependent chloride currents in HeLa cells. To be noted: 24 h treatment, 1 μM (each), compared to controls. Here is the method:
Technique for patch-clamp recordings in the whole cell configuration has been described, such as in Hinzpeter, A. et al. Association between Hsp90 and the ClC-2 chloride channel upregulates channel function. American journal of physiology. Cell physiology 290, C45-56(2006) and Tanguy, G. et al. CSN5 binds to misfolded CFTR and promotes its degradation. Biochimica et biophysica acta 1783, 1189-99(2008). Stably transfected cells were plated in 35 mm cell culture plastic Petri dishes that were mounted on the stage of an inverted microscope. Patch-clamp experiments were performed at room temperature with an Axopatch 200A amplifier controlled by a computer via a digitdata 1440 interface (Axon Intruments, USA). Pipettes were pulled from hard glass (Kimax 51) using a Setter micropipette puller and their tips were fire-polished. Current recordings were performed using the nystatin-perforated patch clamp configuration. Nystatin stock solution (50 mg/ml) was prepared daily in DMSO. The stock solution was diluted (1:250) in the internal solution which was then sonicated during 1 minute. The internal solution contained the following (in mM): 131 NaCl, 2 MgCl2, and 10 Hepes-Na^+, pH 7.3, adjusted with NaOH. […]
Currents were recorded by application of regular voltage pulses of 60 mV amplitude during 1 second, from a holding potential of 0 mV, with an interval of 3 seconds. […]
When maximal stimulation was reached, cells were bathed with 5 μM of the specific CFTRinhibitor, CFTRinh-172, added to the CPT-cAMP solution. CFTR-currents were defined as the differences in current amplitudes recorded during maximum stimulation by CPT-cAMP and after inhibition by CFTRinh-172.
The activity of the different compounds was also evaluated in patch-clamp experiments. FIG. 6a summarizes the mean values of current amplitudes recorded at −60 mV in the different experimental conditions. CFTR-related current density (IΔF508-CFTR; pA/pF) is defined as cAMP-stimulated current minus the current recorded after inhibition by CFTR inh-172 at 5 μM, and normalized to cell capacitance. […]

The target of test [3] is T1, ΔF508-CFTR. Nature of the test: Iodide efflux (corrector effect) in ΔF508-CFTR HeLa cells after 24 hour pre-treatment. To be noted: ΔF508-CFTR HeLa cells; for cAMP-stimulated radiolabel iodide efflux: 24 hour pre-treatment, compound at 1 μM. Here is the method: Cultures were done at 37° C. in a humidified incubator with 5% CO2.
47(4): p. […] Marivingt-Mounir, C, et al., Synthesis, SAR, crystal structure, and biological evaluation of benzoquinoliziniums as activators of wild-type and mutant cystic fibrosis transmembrane conductance regulator channels. […] 47(4): p. […] After washing, cells were incubated with 1 ml of modified Earle's salt solution. After 1 min, the medium was removed to be counted and was quickly replaced by 1 ml of the same medium. This procedure was repeated every 1 min for 8 min. The first three aliquots were used to establish a stable baseline in efflux buffer alone. Medium containing cocktail aiming to increase intracellular cAMP (10 μM forskolin and 30 μM genistein) was used for next aliquots in order to activate CFTR chloride channels. At the end of the incubation, the medium was recovered, and cells were solubilized in 1 N NaOH. The radioactivity was determined using a g-counter (LKB).
t1 and t2 are successive time points.
Data are presented as the mean±S.E. of n separate experiments.
Differences were considered statistically significant using the Student's t test when the p value was less than 0.05.
To test drug correction of ΔF508-CFTR trafficking and function we evaluated halide permeability by a macroscopic assay using a robotic cell-based methodology using the I^− efflux technique. […]

T1 sequence (P13569 with tags, fused parts or gaps DEL508-508): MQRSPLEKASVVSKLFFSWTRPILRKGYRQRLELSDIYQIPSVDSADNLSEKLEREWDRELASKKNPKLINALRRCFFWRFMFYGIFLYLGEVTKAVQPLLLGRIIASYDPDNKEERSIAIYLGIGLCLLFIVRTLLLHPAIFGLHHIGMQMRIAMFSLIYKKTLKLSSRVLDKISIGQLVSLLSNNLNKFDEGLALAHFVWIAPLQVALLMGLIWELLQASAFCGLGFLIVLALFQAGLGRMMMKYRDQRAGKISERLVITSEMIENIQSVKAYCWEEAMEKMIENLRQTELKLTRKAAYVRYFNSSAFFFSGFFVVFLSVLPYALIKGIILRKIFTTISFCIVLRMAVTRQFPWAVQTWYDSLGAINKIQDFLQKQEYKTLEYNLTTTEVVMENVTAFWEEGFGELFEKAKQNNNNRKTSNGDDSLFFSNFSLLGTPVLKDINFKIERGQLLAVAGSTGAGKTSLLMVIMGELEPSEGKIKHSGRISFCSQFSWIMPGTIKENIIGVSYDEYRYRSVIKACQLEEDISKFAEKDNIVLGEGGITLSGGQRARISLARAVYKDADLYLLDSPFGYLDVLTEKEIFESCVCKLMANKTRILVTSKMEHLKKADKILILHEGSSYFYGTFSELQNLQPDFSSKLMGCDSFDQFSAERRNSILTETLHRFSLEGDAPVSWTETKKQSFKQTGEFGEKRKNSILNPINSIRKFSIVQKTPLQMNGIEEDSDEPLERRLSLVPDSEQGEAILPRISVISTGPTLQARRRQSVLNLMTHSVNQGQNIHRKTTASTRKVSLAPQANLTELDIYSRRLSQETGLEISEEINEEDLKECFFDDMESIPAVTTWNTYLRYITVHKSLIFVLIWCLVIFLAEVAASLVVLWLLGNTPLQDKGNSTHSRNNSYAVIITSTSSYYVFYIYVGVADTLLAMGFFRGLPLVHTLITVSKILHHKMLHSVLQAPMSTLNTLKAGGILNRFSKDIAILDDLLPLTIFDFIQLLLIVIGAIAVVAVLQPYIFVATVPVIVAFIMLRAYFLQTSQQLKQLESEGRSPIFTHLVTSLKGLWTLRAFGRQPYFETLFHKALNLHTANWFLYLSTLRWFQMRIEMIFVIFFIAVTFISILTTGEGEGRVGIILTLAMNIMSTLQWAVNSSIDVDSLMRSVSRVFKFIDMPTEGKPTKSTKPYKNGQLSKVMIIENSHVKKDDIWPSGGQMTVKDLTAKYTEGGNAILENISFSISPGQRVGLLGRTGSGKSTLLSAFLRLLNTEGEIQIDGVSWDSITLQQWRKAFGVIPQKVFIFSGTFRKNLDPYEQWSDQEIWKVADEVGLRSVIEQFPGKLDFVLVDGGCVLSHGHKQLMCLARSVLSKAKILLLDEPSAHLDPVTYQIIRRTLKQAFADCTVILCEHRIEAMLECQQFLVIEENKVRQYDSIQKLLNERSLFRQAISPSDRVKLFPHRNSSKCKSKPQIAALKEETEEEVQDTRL

As for `O=c1nc(SCc2cccc([N+](=O)[O-])c2)[nH]c2nc[nH]c12` [compound 118208, 2-[(3-nitrophenyl)methylsulfanyl]-3,7-dihydropurin-6-one], the “CFTR staining / plasma membrane localisation” value at ΔF508-CFTR [1] is recorded as “discrete punctuate staining at the plasma membrane was observed in a small fraction of cells”. In addition, the “CFTR-related current density IΔF508-CFTR (current amplitude at −60 mV)” value (“CFTR-related current density IΔF508-CFTR” below) on ΔF508-CFTR [2] was “did not increase current amplitude”. Moreover, the “cAMP-stimulated radiolabel iodide efflux” value on ΔF508-CFTR [3] is listed as “significant increase”. In addition, the “EC50 (iodide efflux)” value on ΔF508-CFTR [3] (wide range of concentrations) was “could not be precisely determined”.
For `O=C(O)c1ccc(C(=O)O)c(C(=O)Nc2ccc3c(c2)Cc2ccccc2-3)c1` [compound 73100, 2-(9H-fluoren-2-ylcarbamoyl)terephthalic acid], the “CFTR staining / plasma membrane localisation” value at ΔF508-CFTR [1] is given as “discrete punctuate staining at the plasma membrane was observed in a small fraction of cells”. The “CFTR-related current density IΔF508-CFTR” value on ΔF508-CFTR [2] is “did not increase current amplitude”. Moreover, the “cAMP-stimulated radiolabel iodide efflux” value on ΔF508-CFTR [3] is “significant increase”. In addition, on ΔF508-CFTR [3] (wide range of concentrations), the negative logarithm of the EC50 (pEC50) was 6.07.
On to `O=P(O)(CCP(=O)(O)c1ccccc1)c1ccccc1` [compound 407882, 2-[hydroxy(phenyl)phosphoryl]ethyl-phenylphosphinic acid], for which the “CFTR staining / plasma membrane localisation” value on ΔF508-CFTR [1] is reported as “clear CFTR staining at or near the plasma membrane”. Further, the “CFTR-related current density IΔF508-CFTR” value on ΔF508-CFTR [2] is “did not increase current amplitude”. For the same molecule, the “increase of the effect on iodide efflux when used at 10 μM” value on ΔF508-CFTR [3] (10 μM compared with 1 μM) is 3 fold. In addition, the “stimulated efflux at 10 μM compared with WT-CFTR” value at ΔF508-CFTR [3] (10 μM) was “comparable to the value observed for WT-CFTR”. Further, the “cAMP-stimulated radiolabel iodide efflux” value at ΔF508-CFTR [3] was “significant increase”. Also, at ΔF508-CFTR [3] (wide range of concentrations), the negative logarithm of the EC50 (pEC50) was 5.00.
